Laboratory results taken from patent publication US8586747B2, “3,3-dimethyl tetrahydroquinoline derivatives” (Hoffmann-La Roche Inc., priority 2010, dated 2013).

tested on: AMP-activated protein kinase (AMPK); assay: ADP Quest assay for AMPK activators; type: biochemical; set-up: key: fold AMPK activation with vs without activator at 30 µM; settings: fold of AMPK activation to phosphorylate SAMS peptide without and with an activator at the concentration of 30 µM
How it was run: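 AMPK phosphorylation of SAMS peptide with ATP monitored kinetically at room temperature by ADP Quest fluorescence (ex 530/em 590 nm), reaction started with enzyme. Compounds tested […] in 2-fold dilutions, AMP as reference. E30 is fold activation at 30 µM activator versus none.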

| E30 | SMILES |
| --- | --- |
| 1.19 | CC1(C)Cc2cc(C(=O)NS(C)(=O)=O)ccc2NC1c1ccc(N2CCOCC2)cc1 (centres unmarked) [Example 74, N-[3,3-Dimethyl-2-(4-morpholin-4-yl-phenyl)-1,2,3,4-tetrahydro-quinoline-6-carbonyl]-methanesulfonamide] |
| 1.19 | CC(C)N1CCN(c2cc(F)cc(C3Nc4ccc(C(=O)NS(C)(=O)=O)cc4CC3(C)C)c2)CC1 (centres unmarked) [Example 75, N-{2-[3-Fluoro-5-(4-isopropyl-piperazin-1-yl)-phenyl]-3,3-dimethyl-1,2,3,4-tetrahydro-quinoline-6-carbonyl}-methanesulfonamide] |
| 1.47 | CC1(C)Cc2cc(C(=O)O)ccc2NC1c1cc(F)cc(N2CCCC2=O)c1 (centres unmarked) [Example 76, 2-[3-Fluoro-5-(2-oxo-pyrrolidin-1-yl)-phenyl]-3,3-dimethyl-1,2,3,4-tetrahydro-quinoline-6-carboxylic acid] |
| 1.42 | CC1(C)Cc2cc(C(=O)NS(C)(=O)=O)ccc2NC1c1cc(F)cc(N2CCCC2=O)c1 (centres unmarked) [Example 77, N-{2-[3-fluoro-5-(2-oxo-pyrrolidin-1-yl)-phenyl]-3,3-dimethyl-1,2,3,4-tetrahydro-quinoline-6-carbonyl}-methanesulfonamide] |
| 1.79 | COC(=O)c1cc(Cl)cc2c1NC(c1cccc(NC(C)(C)C(=O)O)c1)C(C)(C)C2 (centres unmarked) [Example 78, 2-[3-(1-Carboxy-1-methyl-ethylamino)-phenyl]-6-chloro-3,3-dimethyl-1,2,3,4-tetrahydro-quinoline-8-carboxylic acid methyl ester] |
| 1.33 | CNC(=O)C(C)(C)Nc1cccc(C2Nc3c(cc(Cl)cc3C(=O)O)CC2(C)C)c1 (centres unmarked) [Example 79, 6-Chloro-3,3-dimethyl-2-[3-(1-methyl-1-methylcarbamoyl-ethylamino)-phenyl]-1,2,3,4-tetrahydro-quinoline-8-carboxylic acid] |
| 1.72 | CC(C)(Nc1cccc(C2Nc3c(cc(Cl)cc3C(=O)O)CC2(C)C)c1)C(=O)O (centres unmarked) [Example 80, 2-[3-(1-Carboxy-1-methyl-ethylamino)-phenyl]-6-chloro-3,3-dimethyl-1,2,3,4-tetrahydro-quinoline-8-carboxylic acid] |
| 2.85 | CC(=O)N1CCN(c2cccc(C3Nc4c(cc(Cl)cc4C(=O)O)CC3(C)C)c2)CC1 (centres unmarked) [Example 81, 2-[3-(4-Acetyl-piperazin-1-yl)-phenyl]-6-chloro-3,3-dimethyl-1,2,3,4-tetrahydro-quinoline-8-carboxylic acid] |
| 1.5 | Cc1ccccc1N1CCN(c2cccc(C3Nc4c(cc(Cl)cc4C(=O)O)CC3(C)C)c2)CC1 (centres unmarked) [Example 82, 6-Chloro-3,3-dimethyl-2-[3-(4-o-tolyl-piperazin-1-yl)-phenyl]-1,2,3,4-tetrahydro-quinoline-8-carboxylic acid] |
| 1.35 | CC(C)(C)c1ccc(-c2cccc(C3Nc4ccc(C(=O)NS(C)(=O)=O)cc4CC3(C)C)c2)cc1 (centres unmarked) [Example 83, N-[2-(4′-tert-Butyl-biphenyl-3-yl)-3,3-dimethyl-1,2,3,4-tetrahydro-quinoline-6-carbonyl]-methanesulfonamide] |
| 1.25 | CC(C)Oc1ccc(-c2cccc(C3Nc4ccc(C(=O)O)cc4CC3(C)C)c2)cc1 (centres unmarked) [Example 84, 2-(4′-Isopropoxy-biphenyl-3-yl)-3,3-dimethyl-1,2,3,4-tetrahydro-quinoline-6-carboxylic acid] |
| 1.29 | CC(C)Oc1ccc(-c2cccc(C3Nc4ccc(C(=O)NS(C)(=O)=O)cc4CC3(C)C)c2)cc1 (centres unmarked) [Example 85, N-[2-(4′-Isopropoxy-biphenyl-3-yl)-3,3-dimethyl-1,2,3,4-tetrahydro-quinoline-6-carbonyl]-methanesulfonamide] |
| 2.74 | CC(C)Oc1ccc(-c2cccc(C3Nc4ccc(C(=O)NS(=O)(=O)C5CC5)cc4CC3(C)C)c2)cc1 (centres unmarked) [Example 86, Cyclopropanesulfonic acid [2-(4′-isopropoxy-biphenyl-3-yl)-3,3-dimethyl-1,2,3,4-tetrahydro-quinoline-6-carbonyl]-amide] |
| 1.3 | CC1(C)Cc2cc(C(=O)O)ccc2NC1c1cccc(N2CCN(c3ccc(Cl)cc3)CC2)c1 (centres unmarked) [Example 87, 2-{3-[4-(4-Chloro-phenyl)-piperazin-1-yl]-phenyl}-3,3-dimethyl-1,2,3,4-tetrahydro-quinoline-6-carboxylic acid] |
| 1.35 | CC1(C)Cc2cc(C(=O)NS(C)(=O)=O)ccc2NC1c1cccc(N2CCN(c3ccc(Cl)cc3)CC2)c1 (centres unmarked) [Example 88, N-(2-{3-[4-(4-Chloro-phenyl)-piperazin-1-yl]-phenyl}-3,3-dimethyl-1,2,3,4-tetrahydro-quinoline-6-carbonyl)-methanesulfonamide] |
| 1.3 | Cc1ccc(N2CCN(c3cccc(C4Nc5ccc(C(=O)O)cc5CC4(C)C)c3)CC2)c(C)c1 (centres unmarked) [Example 89, 2-{3-[4-(2,4-Dimethyl-phenyl)-piperazin-1-yl]-phenyl}-3,3-dimethyl-1,2,3,4-tetrahydro-quinoline-6-carboxylic acid] |
| 1.44 | Cc1ccc(N2CCN(c3cccc(C4Nc5ccc(C(=O)NS(C)(=O)=O)cc5CC4(C)C)c3)CC2)c(C)c1 (centres unmarked) [Example 90, N-(2-{3-[4-(2,4-Dimethyl-phenyl)-piperazin-1-yl]-phenyl}-3,3-dimethyl-1,2,3,4-tetrahydro-quinoline-6-carbonyl)-methanesulfonamide] |
| 1.31 | Cc1ccc(N2CCN(c3cccc(C4Nc5ccc(C(=O)NS(=O)(=O)C6CC6)cc5CC4(C)C)c3)CC2)c(C)c1 (centres unmarked) [Example 91, Cyclopropanesulfonic acid (2-{3-[4-(2,4-dimethyl-phenyl)-piperazin-1-yl]-phenyl}-3,3-dimethyl-1,2,3,4-tetrahydro-quinoline-6-carbonyl)-amide] |
| 1.23 | Cc1ccccc1N1CCN(c2cccc(C3Nc4c(cc(F)cc4C(=O)O)CC3(C)C)c2)CC1 (centres unmarked) [Example 92, 6-Fluoro-3,3-dimethyl-2-[3-(4-o-tolyl-piperazin-1-yl)-phenyl]-1,2,3,4-tetrahydro-quinoline-8-carboxylic acid] |
| 1.32 | CC1(C)Cc2cc(Cl)cc(C(=O)NS(C)(=O)=O)c2NC1c1cccc(N2CCN(c3ccc(Cl)cc3)CC2)c1 (centres unmarked) [Example 93, N-(6-Chloro-2-{3-[4-(4-chloro-phenyl)-piperazin-1-yl]-phenyl}-3,3-dimethyl-1,2,3,4-tetrahydro-quinoline-8-carbonyl)-methanesulfonamide] |
| 1.33 | Cc1ccccc1N1CCN(c2cccc(C3Nc4c(cccc4C(=O)O)CC3(C)C)c2)CC1 (centres unmarked) [Example 94, 3,3-Dimethyl-2-[3-(4-o-tolyl-piperazin-1-yl)-phenyl]-1,2,3,4-tetrahydro-quinoline-8-carboxylic acid] |
| 1.56 | CC1(C)Cc2c(ccc(Cl)c2C(=O)O)NC1c1cccc(N2CCOCC2)c1 (centres unmarked) [Example 95, 6-Chloro-3,3-dimethyl-2-(3-morpholin-4-yl-phenyl)-1,2,3,4-tetrahydro-quinoline-5-carboxylic acid] |
| 1.5 | CN1CCN(c2cccc(C3Nc4ccc(C(=O)NS(C)(=O)=O)cc4CC3(C)C)c2)CC1 (centres unmarked) [Example 96, N-{3,3-Dimethyl-2-[3-(4-methyl-piperazin-1-yl)-phenyl]-1,2,3,4-tetrahydro-quinoline-6-carbonyl}-methanesulfonamide] |
